Assay results published in the supplement of paper PMC10307832.

Experiments:
Assay in all cases: relative viability (nuclei count vs DMSO), 5 days (fraction); higher = more cells survive
[1] = compound: C(C(=O)C(=O)O)Br [Bromopyruvate] + C[C@@H](Oc1cc(-c2cnn(C3CCNCC3)c2)cnc1N)c1c(Cl)ccc(F)c1Cl [Crizotinib] (partner 1 µM)
How it was run: (§1)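 Medians of duplicate plates are given as relative viability. That measure is the nuclei count in treated wells divided by the count in vehicle wells. Counts were taken on 4× images of lung cancer cell lines in 1536-well plates, 5 days after pin-tool dosing the day after seeding with one drug alone or a fixed anchor-drug dose plus five library-drug doses (not always all listed) in √10 steps.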

[2] = compound: C(C(=O)C(=O)O)Br [Bromopyruvate] + CC(=O)c1c(C)c2cnc(Nc3ccc(N4CCNCC4)cn3)nc2n(C2CCCC2)c1=O [Palbociclib] (partner 0.5 µM)
How it was run: as §1

[3] = compound: CC(O)(CS(=O)(=O)c1ccc(F)cc1)C(=O)Nc1ccc(C#N)c(C(F)(F)F)c1 [Bicalutamide] + O=C(CCCCCCC(=O)Nc1ccccc1)NO [Vorinostat] (partner 1 µM)
How it was run: as §1

[4] = compound: CC(O)(CS(=O)(=O)c1ccc(F)cc1)C(=O)Nc1ccc(C#N)c(C(F)(F)F)c1 [Bicalutamide] + CC(C)C[C@H](NC(=O)[C@H](Cc1ccccc1)NC(=O)c1cnccn1)B(O)O [Bortezomib] (partner 0.002 µM)
How it was run: as §1

Cell Line | relative viability ([1]; first compound 1 µM) | relative viability ([1]; first compound 3.162 µM) | relative viability ([1]; first compound 10 µM) | relative viability ([1]; first compound 31.62 µM) | relative viability ([1]; first compound 100 µM) | relative viability ([2]; first compound 1 µM) | relative viability ([2]; first compound 3.162 µM) | relative viability ([2]; first compound 10 µM) | relative viability ([2]; first compound 31.62 µM) | relative viability ([2]; first compound 100 µM) | relative viability ([3]; first compound 0.08 µM) | relative viability ([3]; first compound 0.253 µM) | relative viability ([3]; first compound 0.8 µM) | relative viability ([3]; first compound 2.53 µM) | relative viability ([4]; first compound 0.08 µM) | relative viability ([4]; first compound 0.253 µM) | relative viability ([4]; first compound 0.8 µM) | relative viability ([4]; first compound 2.53 µM)
201T | 1.06 | 1.03 | 1.02 | 1.02 | 1.08 | 0.341 | 0.348 | 0.344 | 0.35 | 0.382 | 1.11 | 0.957 | 1.05 | 0.977 | 1.1 | 1.06 | 1.08 | 1.12
A549 | 0.731 | 0.806 | 0.858 | 0.754 | 0.736 |  |  |  |  |  |  |  |  |  |  |  |  | 
A-427 | 0.878 | 0.873 | 0.82 | 0.741 | 0.793 | 0.51 | 0.552 | 0.551 | 0.536 | 0.497 | 0.883 | 0.9 | 0.866 | 0.842 | 1.04 | 1.12 | 1 | 0.93
ABC-1 | 1.47 | 1.13 |  | 1.05 | 0.636 | 0.662 |  |  |  | 0.792 | 1.06 | 0.805 | 1.5 | 0.947 | 0.311 | 0.232 | 0.328 | 0.319
BEN | 0.875 | 0.935 | 0.99 | 0.753 | 1.01 | 0.457 | 0.449 | 0.505 | 0.497 | 0.486 | 0.537 | 0.719 | 0.588 | 0.617 | 0.847 | 0.667 | 1.18 | 0.917
CAL-12T | 0.663 | 0.663 | 0.743 | 0.48 | 0.505 | 0.429 | 0.444 | 0.552 | 0.395 | 0.285 | 0.945 | 0.607 | 0.915 | 0.623 | 0.942 | 0.858 | 1.12 | 0.768
COR-L23 | 0.564 | 0.597 | 0.717 | 0.713 | 0.336 | 0.239 | 0.283 | 0.232 | 0.255 | 0.178 | 0.443 | 0.486 | 0.411 | 0.267 | 1.09 | 0.862 | 1.13 | 0.926
COR-L 105 | 0.716 | 1.09 | 0.739 | 0.583 | 0.439 | 0.404 | 0.396 | 0.415 | 0.374 | 0.429 | 0.983 | 0.712 | 0.944 | 0.717 | 0.761 | 0.87 | 0.98 | 0.501
Calu-6 | 0.659 | 0.843 | 0.938 | 0.79 | 0.546 |  |  |  |  |  |  |  |  |  | 1.08 | 0.857 | 1.05 | 0.922
ChaGo-K-1 | 1.09 | 1.14 | 1.17 | 1.1 | 1.17 | 0.93 | 0.947 | 0.979 | 0.87 | 0.876 | 0.763 | 0.691 | 0.887 | 0.772 | 0.973 | 1.05 | 1.17 | 0.864
EBC-1 | 0.235 | 0.218 | 0.187 | 0.187 | 0.196 |  |  |  |  |  |  |  |  |  | 0.584 | 0.537 | 0.592 | 0.477
EKVX | 0.917 | 1.1 | 1.08 | 1.03 | 0.996 | 0.217 | 0.387 | 0.459 | 0.494 | 0.44 | 0.814 | 0.656 | 0.711 | 0.713 | 0.994 | 1.1 | 1.37 | 0.952
EMC-BAC-2 | 0.611 | 0.723 | 0.798 | 0.788 | 0.756 | 0.434 | 0.546 | 0.554 | 0.506 | 0.533 | 0.5 | 0.434 | 0.833 | 0.289 | 1.04 | 0.968 | 1.15 | 0.929
EPLC-272H | 0.773 | 0.996 | 0.999 | 0.92 | 0.911 | 0.321 | 0.372 | 0.386 | 0.31 | 0.362 | 0.437 | 0.401 | 0.573 | 0.479 | 0.873 | 0.666 | 0.904 | 0.894
H3255 | 0.929 | 0.987 | 0.915 | 0.803 | 0.973 | 0.314 | 0.31 | 0.297 | 0.308 | 0.309 | 0.808 | 0.755 | 0.969 | 0.69 | 0.798 | 0.632 | 0.783 | 0.698
HARA | 1.05 | 1.03 | 0.983 | 0.991 | 1.06 | 0.254 | 0.283 | 0.296 | 0.259 | 0.261 | 0.469 | 0.477 | 0.586 | 0.517 | 1.15 | 1.02 | 1.14 | 1.22
HCC-15 | 0.823 | 0.898 | 0.793 | 0.817 | 0.905 | 0.654 | 0.677 | 0.846 | 0.771 | 0.741 | 0.746 | 0.761 | 0.954 | 0.899 | 1.03 | 0.953 | 1.21 | 0.983
